Measured values taken from patent publication US20110105389A1 (priority 2009, published 2011).
Read-outs that look alike come from different tables or passages of the source.

Columns and labels:
[1] = target: T1, human ghrelin receptor (GRLN, growth hormone secretagogue receptor, hGHS-R1a) (Homo sapiens, UniProt Q92847); assay: Competitive radioligand binding assay (ghrelin receptor), Method B1
T1 construct: purchased PerkinElmer BioSignal #RBHGHSM, lot#1887; host or cells: HEK-293 cells, stably transfected (membranes)
T1 sequence (Q92847 whole entry): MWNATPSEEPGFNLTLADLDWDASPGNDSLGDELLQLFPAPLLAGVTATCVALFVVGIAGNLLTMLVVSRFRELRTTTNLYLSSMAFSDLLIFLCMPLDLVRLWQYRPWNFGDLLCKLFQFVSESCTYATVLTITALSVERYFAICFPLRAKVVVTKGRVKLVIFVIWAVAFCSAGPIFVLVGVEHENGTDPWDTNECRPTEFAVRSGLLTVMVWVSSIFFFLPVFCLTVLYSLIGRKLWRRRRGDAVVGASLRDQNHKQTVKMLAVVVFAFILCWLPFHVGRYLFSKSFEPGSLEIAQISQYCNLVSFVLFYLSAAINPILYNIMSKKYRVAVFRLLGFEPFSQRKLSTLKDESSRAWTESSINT
Procedure, shortened: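 Membranes incubated with compound 30 min at rt in 25 mM Hepes pH 7.4, 1 mM CaCl2, 5 mM MgCl2, 2.5 mM EDTA, 0.4% BSA, max 0.1% DMSO; filtered on PEI-soaked GF/C, washed with cold Tris, scintillation counted. Curves fitted by variable-slope non-linear regression.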

CYP3A4 [2] = target: T2, CYP3A4 (Homo sapiens, UniProt P08684); assay: Cytochrome P450 inhibition, Method B6 (two substrates); details: read-out: IC50 CYP 3A4; Table 4b; midazolam used as substrate
T2 sequence (P08684 whole entry): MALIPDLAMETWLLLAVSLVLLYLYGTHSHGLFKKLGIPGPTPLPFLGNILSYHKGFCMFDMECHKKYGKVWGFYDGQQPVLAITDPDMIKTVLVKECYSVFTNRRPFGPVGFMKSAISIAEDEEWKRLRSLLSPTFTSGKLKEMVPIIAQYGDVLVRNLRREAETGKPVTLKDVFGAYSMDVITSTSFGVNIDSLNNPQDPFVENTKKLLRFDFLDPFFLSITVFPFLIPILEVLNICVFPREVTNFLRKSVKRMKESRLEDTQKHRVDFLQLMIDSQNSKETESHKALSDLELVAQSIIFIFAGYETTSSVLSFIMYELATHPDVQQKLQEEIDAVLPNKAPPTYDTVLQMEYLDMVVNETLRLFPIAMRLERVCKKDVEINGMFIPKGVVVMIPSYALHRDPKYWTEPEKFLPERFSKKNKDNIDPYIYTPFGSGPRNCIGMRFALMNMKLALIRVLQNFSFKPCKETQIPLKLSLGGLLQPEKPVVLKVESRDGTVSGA

[3] = target: T3, GHS-R1a receptor (HEK293 cells expressing GHS-R1a receptor) (Homo sapiens, UniProt Q92847); assay: Fluorescence functional assay (ghrelin receptor), Method B2, agonist and antagonist mode; format: cell-based; details: functional activity as an antagonist at the ghrelin receptor, Methods B2 and B3
T3 construct: host or cells: HEK293
T3 sequence (Q92847 whole entry): as the sequence (Q92847 whole entry) above
Procedure, shortened: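 Calcium flux read by ImageTrak epifluorescence in HEK293 cells stably expressing GHS-R1a, loaded 1 h at 37 °C with Calcium-3 dye; buffer HBSS/20 mM Hepes, pH 7.4, with probenecid and BSA. Agonists injected after 10 s baseline, read 50 s more; antagonists 3 min. Sigmoidal fits gave EC50 or IC50.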

CYP2D6 [4] = target: T4, CYP2D6 (Homo sapiens, UniProt P10635); assay: Cytochrome P450 inhibition, Method B6; details: read-out: IC50 CYP 2D6; Table 4b; dextromethorphan used as substrate
T4 sequence (P10635 whole entry): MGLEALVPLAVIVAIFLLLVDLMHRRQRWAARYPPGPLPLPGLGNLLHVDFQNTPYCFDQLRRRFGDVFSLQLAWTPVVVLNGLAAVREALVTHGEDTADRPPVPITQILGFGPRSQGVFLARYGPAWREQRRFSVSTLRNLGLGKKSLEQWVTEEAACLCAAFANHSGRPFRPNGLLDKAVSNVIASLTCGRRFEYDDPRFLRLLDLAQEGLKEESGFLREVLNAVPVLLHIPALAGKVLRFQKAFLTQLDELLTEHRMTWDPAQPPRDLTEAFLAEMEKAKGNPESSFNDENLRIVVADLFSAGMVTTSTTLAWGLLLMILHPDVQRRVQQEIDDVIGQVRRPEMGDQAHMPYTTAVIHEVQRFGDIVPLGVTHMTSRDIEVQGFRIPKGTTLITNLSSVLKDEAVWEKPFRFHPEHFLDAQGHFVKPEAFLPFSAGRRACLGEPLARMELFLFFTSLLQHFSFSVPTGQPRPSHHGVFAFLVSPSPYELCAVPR

CYP3A4 [5] = target: T2, CYP3A4; assay: biochemical
CYP2D6 [6] = target: T4, CYP2D6; assay: biochemical
[7] = Metabolic stability in human liver microsomes, Method B8; format: in vitro ADME; details: human liver microsomes 0.8 mg/mL, 5 μM compound, 37° C.
From the text: B8. Metabolic Stability in Human Liver Microsomes
The liver is the primary site for phase I (oxidation) and phase II (glucuronidation) enzymatic activity responsible for xenobiotic metabolism. Human liver microsomes are used as in vitro screen of metabolic activity for candidate drugs. Similar studies can be run with microsomes from other species, such as those used for in vivo studies, to determine any significant species differences in the stability profile. The aim of this study was to measure the broad-spectrum metabolic stability of representative compounds of the invention. The key aspects of the experimental design are summarized below: • Human liver microsomes (mixed pool of 15 male and female donors) were purchased from In Vitro Technologies (Baltimore, Md.). • Microsomes characterized for phase I (Cyp2A6, 2D6, 2E1, 1A2, 2C19, 3A4, 4A) and phase II (glucuronidation) enzymatic activity. • Assays are performed using a final concentration of 0.8 mg/mL of microsomes in 100 mM potassium phosphate buffer (1.5 mM NADPH, 8 mM MgCl2, pH 7.4, 37° C.). • Compounds are tested in duplicate samples at a single concentration of 5 μM (0.05% DMSO). • Test articles are incubated with the microsomes at 37° C.

[8] = system: rat stomach fundus strips; assay: Ex-vivo potency evaluation on the rat stomach fundus (inhibition of ghrelin-induced contractility), Method B10; details: EFS
Procedure: B10. Ex-vivo Potency Evaluation on the Rat Stomach Fundus
Fundus strips (approximately 0.4×1 cm) were cut from the stomach of adult male Wistar rats parallel to the circular muscle fibers. They were placed between two platinum ring electrodes, 1 cm apart (Radnoti, ADlnstruments, USA) in 10 ml tissue baths containing Krebs solution bubbled with 5% CO2 in O2 and maintained at 37° C. Tissues were suspended under 1.5 g resting tension. Changes of tension were measured isometrically with force transducers and recorded with a PowerLab 8/30 data acquisition system (ADlnstruments, USA). Tissues were allowed to equilibrate for 60 min during which time bath solutions were changed every 15 min.
EFS was achieved by applying 0.5 ms pulses, 5 Hz frequency, at a maximally effective voltage of 70 V. EFS was applied for 30 sec at 3 min intervals for a 30 min initial period. This initial period was separated by a […] interval with wash out of the bath solution. Then, a second period of stimulation was started. […] Responses to the agents were measured and expressed as % of the mean of three or four pre-drug responses to EFS. All compounds were dissolved at 1 mM in distilled water or MeOH, as stock solutions.
IC50 values for the inhibition of ghrelin-induced contractility by representative compounds of the invention are presented in Table 7.

[9] = target: T5, ghrelin receptor (HEK-GHSR1 stable cells) (Homo sapiens, UniProt Q92847); assay: Ghrelin receptor inverse agonist assay (HTRF IP-one), Method B4; format: cell-based; details: inverse agonist at the ghrelin receptor, Method B4
T5 construct: expressed in transfected cells
T5 sequence (Q92847 whole entry): as the sequence (Q92847 whole entry) above
Procedure, shortened: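 HEK cells stably expressing GHSR1, seeded at 100 000 cells/well overnight, exposed to compound for 30 min at 37° C. Cells then lysed and IP1 accumulation measured by HTRF (d2 plus anti-IP1 cryptate, 1 h at room temp). Wells lacking d2 served as negative control.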

[10] = cited from earlier work
[11] = Ghrelin receptor binding activity, Method B1

| Structure (SMILES) | IC50 (CYP3A4 [2]) | Antagonist Activity [3] | IC50 (CYP2D6 [4]) | HLM, metabolic stability in human liver microsomes [7] | other results |
| --- | --- | --- | --- | --- | --- |
| CCC(C)[C@@H]1NCCOc2ccccc2/C=C/CNC(=O)[C@@H](Cc2ccccc2)NC(=O)[C@H](C(C)O)N(C)C1=O (some centres unmarked) [Compound 1318] | 3.9 µM | C (C = 10-100 nM) | > 5 µM | – | IC50 [1, 11]: 0.01 to 0.1 µM; Ki [1, 11]: 0.001 to 0.01 µM |
| CC(C)[C@@H]1NCCOc2ccccc2/C=C/CNC(=O)[C@@H](Cc2ccccc2)NC(=O)[C@H](C(C)O)N(C)C1=O (some centres unmarked) [Compound 1319] | – | – | – | 26.5 μL/min/mg protein | IC50 (CYP3A4 [5]): 8 µM; IC50 (CYP2D6 [6]): 19.1 µM; IC50 [1]: 0.01 to 0.1 µM; Ki [1]: 0.001 to 0.01 µM; IC50 [8]: 0.072 µM |
| COC(C)[C@@H]1NCCOc2ccccc2/C=C/CNC(=O)[C@@H](Cc2ccccc2)NC(=O)[C@H](C(C)O)N(C)C1=O (some centres unmarked) [Compound 1324] | > 5 µM | D (D = 100-500 nM) | > 5 µM | – | Ki [1, 11]: 0.01 to 0.1 µM |
| CCC(C)[C@@H]1NCCOc2ccccc2/C=C/CNC(=O)[C@@H](Cc2ccccc2F)NC(=O)[C@H](C(C)O)N(C)C1=O (some centres unmarked) [Compound 1325] | > 3.1 µM | C (C = 10-100 nM) | > 5 µM | – | IC50 [1, 11]: 0.01 to 0.1 µM; Ki [1, 11]: 0.01 to 0.1 µM; IC50 [8]: 0.029 µM |
| CCC(C)[C@@H]1NCCOc2ccccc2/C=C/CNC(=O)[C@@H](Cc2cccc(F)c2)NC(=O)[C@H](C(C)O)N(C)C1=O (some centres unmarked) [Compound 1326] | – | C (C = 10-100 nM) | – | – | IC50 (CYP3A4 [5]): 2.2 µM; IC50 (CYP2D6 [6]): > 5 µM; IC50 [1]: 0.01 to 0.1 µM; Ki [1]: 0.001 to 0.01 µM |
| CCC(C)[C@@H]1NCCOc2ccccc2/C=C/CNC(=O)[C@@H](Cc2ccc(C(F)(F)F)cc2)NC(=O)[C@H](C(C)O)N(C)C1=O (some centres unmarked) [Compound 1327] | – | – | – | – | IC50 (CYP3A4 [5]): > 17.7 µM; IC50 (CYP2D6 [6]): > 25 µM; IC50 [1]: 0.01 to 0.1 µM; Ki [1]: 0.001 to 0.01 µM |
| CCC(C)[C@@H]1NCCOc2ccccc2C[C@H](O)CNC(=O)[C@@H](Cc2ccccc2)NC(=O)[C@H](C(C)O)N(C)C1=O (some centres unmarked) [Compound 1340] | – | – | – | – | IC50 (CYP3A4 [5]): 17.2 µM; IC50 (CYP2D6 [6]): 13.3 µM; IC50 [1]: 0.01 to 0.1 µM; Ki [1]: 0.01 to 0.1 µM |
| CC(C)[C@@H]1NCCOc2ccccc2/C=C/CNC(=O)[C@@H](Cc2cccc(O)c2)NC(=O)[C@H](C(C)O)N(C)C1=O (some centres unmarked) [Compound 1350] | 5.7 µM | C (C = 10-100 nM) | 7.9 µM | – | – |
| CCC(C)[C@@H]1NCCOc2ccccc2CC[C@@H](C)NC(=O)[C@@H](Cc2ccccc2)NC(=O)[C@H](C(C)O)N(C)C1=O (some centres unmarked) [Compound 1358] | 1.6 µM | C (C = 10-100 nM) | > 20 µM | – | – |
| CC(C)[C@@H]1NCCOc2ccccc2CC[C@@H](C)NC(=O)[C@@H](Cc2c[nH]c3ccccc23)NC(=O)[C@H](C(C)O)N(C)C1=O (some centres unmarked) [Compound 1375] | 8.8 µM | B (B = 1-10 nM) | > 20 µM | 58.4 μL/min/mg protein | – |
| CC(C)[C@@H]1NCCOc2ccccc2CC[C@@H](C)NC(=O)[C@@H]([C@@H](C)c2ccccc2)NC(=O)[C@H](C(C)O)N(C)C1=O (some centres unmarked) [Compound 1390] | – | C (C = 10-100 nM) | – | 53 μL/min/mg protein | IC50 (CYP3A4 [5]): 6.9 µM; IC50 (CYP2D6 [6]): > 20 µM |
| CC(C)[C@@H]1NCCOc2ccccc2CC[C@@H](C)NC(=O)[C@@H](Cc2ccsc2)NC(=O)[C@H](C(C)O)N(C)C1=O (some centres unmarked) [Compound 1399] | 2.3 µM | B (B = 1-10 nM) | > 20 µM | – | – |
| CC(C)[C@@H]1NCCOc2ccccc2CC[C@@H](C)NC(=O)[C@@H](Cc2ccc3ccccc3n2)NC(=O)[C@H](C(C)O)N(C)C1=O (some centres unmarked) [Compound 1413] | 1 µM | B (B = 1-10 nM) | 14.7 µM | – | – |
| COc1ccccc1C[C@H]1NC(=O)[C@H](C(C)O)N(C)C(=O)[C@H](C(C)C)NCCOc2ccccc2CC[C@@H](C)NC1=O (some centres unmarked) [Compound 1418] | 0.9 µM | B (B = 1-10 nM) | 14.5 µM | 32.2 μL/min/mg protein | – |
| CC(C)[C@@H]1NCCOc2ccc(F)cc2CC[C@@H](C)NC(=O)[C@@H](Cc2c[nH]c3ccccc23)NC(=O)[C@H](C(C)O)N(C)C1=O (some centres unmarked) [Compound 1428] | 0.8 µM | – | 9.1 µM | – | – |
| CC(C)[C@@H]1NCCOc2cccc(F)c2CC[C@@H](C)NC(=O)[C@@H](Cc2c[nH]c3ccccc23)NC(=O)[C@H](C(C)O)N(C)C1=O (some centres unmarked) [Compound 1429] | 0.7 µM | – | > 20 µM | – | – |
| CC(C)[C@@H]1NCCOc2ccccc2/C=C/CNC(=O)[C@@H](Cc2cccc(Cl)c2)NC(=O)[C@H](C(C)O)N(C)C1=O (some centres unmarked) [Compound 1432] | 1.2 µM | B (B = 1-10 nM) | 5.2 µM | 25.1 μL/min/mg protein | – |
| CC(O)[C@H]1C(=O)N[C@H](Cc2ccc(Cl)cc2)C(=O)NC/C=C/c2ccccc2OCCN[C@@H](C2(C)CC2)C(=O)N1C (some centres unmarked) [Compound 1729] | 1.9 µM | B (B = 1-10 nM) | – | 54.8 μL/min/mg protein | IC50 [1, 11]: 0.001 to 0.01 µM; IC50 [9]: 0.05 to 0.1 µM |
| CC[C@@H]1NCCOc2ccccc2/C=C/CNC(=O)[C@@H](Cc2ccc(Cl)cc2)NC(=O)[C@H](C(C)O)N(C)C1=O (some centres unmarked) [Compound 1732] | 2.9 µM | – | – | 52.2 μL/min/mg protein | IC50 [1, 11]: 0.01 to 0.1 µM; IC50 [9]: 0.1 to 0.5 µM |
| C=C[C@H]1C[N@@]2CC[C@H]1C[C@H]2[C@H](O)c1ccnc2ccc(OC)cc12 [quinine] | – | – | – | – | known plasma protein binding value ([10]; reference controls): ~35% |
| CC(=O)CC(c1ccccc1)c1c(O)c2ccccc2oc1=O (centres unmarked) [warfarin] | – | – | – | – | known plasma protein binding value ([10]; plasma): ~98% |
